Measurements published in US9192666B2, “Method of treating cancer using anti-c-Met antibody and FGFR inhibitor combination therapy” (Samsung Electronics Co., Ltd., priority 2013, dated 2015).

What was measured:
[1] = test system: MKN45 gastric cancer cells; assay: Tumor xenograft model of MKN45 gastric cancer cell line; type: in vivo, BALB/c nude mice; conditions: 21st day after treatment vs vehicle, BGJ398 10 mg/kg P.O. once a day, L3-1Y/IgG2 1 mg/kg I.V. once a week
Method: To verify the in vivo effect of the co-administration on tumor growth, a tumor xenograft model was prepared using male 5-6 week-old BALB/c nude mice (Pharmalegacy, China). The mice were adapted at least one week before inoculation of tumor cells.
Then, the mice were anesthetized with 1-2% isofurane, and MKN45 gastric cancer cells (JCRB, JCRB0254) were subcutaneously injected into right flank of the mice at the amount of 5×10^6 cells/each mouse. 7 days after, when the average size of tumor reaches 50 mm^3 or more, the mice were grouped into the following groups: a group treated with BGJ398 (10 mg/kg P.O., once a day), a group treated with L3-1Y/IgG2 (1 mg/kg I.V., once a week), a group co-treated with L3-1Y/IgG2 (1 mg/kg, I.V., once a week) and BGJ398 (10 mg/kg, P.O., once a day), and a group (control) treated with vehicle (PBS 0.2 ml, I.V., once a week). Each group consisted of 10 mice.
The experiment was performed for 4 weeks in total, and tumor size and body weight of the mice were measured twice a week. The tumor volume (V) was calculated by the following formula: V(mm^3)={length of long axis(mm)×(length of short axis(mm))^2}/2.

[2] = test system: L3-1Y/IgG2 resistant MKN45 cells; assay: Cell viability in L3-1Y/IgG2 resistant MKN45 cells; type: cell-based; conditions: 72 hours, PD173074 10 uM, BGJ398 5 uM
Method: To verify that the co-treatment with a FGFR inhibitor allows overcoming a L3-1Y/IgG2 resistance acquired by repeated treatment of L3-1Y/IgG2, L3-1Y/IgG2 resistant cells were prepared by treating L3-1Y/IgG2 to MKN45 gastric cancer cell line for at least 3 months, and used for the following experiment. The L3-1Y/IgG2 resistant cells were prepared as follows: MKN45 cells (JCRB, JCRB0254) were treated with L3-1Y/IgG2, where the concentration of treated L3-1Y/IgG2 was increased from 1 ug/ml to 10 ug/ml, until the resistance is acquired. To verify the acquirement of resistance to L3-1Y/IgG2, the resistance acquired clones were cultured with or without L3-1Y/IgG2 treatment, and at 72 hours after the treatment, the cell number was measured by CellTiter Glo assay (Promega, G7573), referring to the above example,
The synergistic effect of co-treatment of a FGFR inhibitor and L3-1Y/IgG2 was verified as follows. The prepared L3-1Y/IgG2 resistant MKN45 cells were seeded at the amount of 5,000 cells/well on 96 well plate to which RPMI1640 medium (GIBCO) supplemented with 10% FBS is added, and incubated overnight at 37° C. Next day (24 hours after), the incubated cells were treated with L3-1Y/IgG2 alone or together with FGFR inhibitor, PD173074 or BGJ398. For the treatment of L3-1Y/IgG2 only, the concentration of L3-1Y/IgG2 was 0 ug/ml, 0.016 ug/ml, 0.08 ug/ml, 0.4 ug/ml, or 2 ug/ml, and for the co-treatment, the concentration of the FGFR inhibitor was fixed and the concentration of L3-1Y/IgG2 was 0 ug/ml, 0.016 ug/ml, 0.08 ug/ml, 0.4 ug/ml, or 2 ug/ml. The concentration of the FGFR inhibitor was fixed at 10 uM for PD173074 and 5 uM for BGJ398.
(§1) At 72 hours after the single treatment or the co-treatment, 100 uL of CellTiter Glo solution (Promega, G7572) was added to each well, and left for 30 minutes at room temperature. The cell number was counted by emission signal, and the emission signal was recorded using Envision 2104 Multi-label Reader (Perkin Elmer).

[3] = test system: L3-1Y/IgG2 resistant EBC1 cells; assay: Cell viability in L3-1Y/IgG2 resistant EBC1 cells; type: cell-based; conditions: 72 hours, BGJ398 5 uM
Method: To verify that the co-treatment with a FGFR inhibitor allows overcoming a L3-1Y/IgG2 resistance acquired by repeated treatment of L3-1Y/IgG2, L3-1Y/IgG2 resistant cells were prepared by treating L3-1Y/IgG2 to EBC1 lung cancer cell line for at least 3 months, and used for the following experiment. The EBC1 lung cancer cell line acquiring the resistant to L3-1Y/IgG2 was prepared referring to Example 4.
The synergistic effect of co-treatment of a FGFR inhibitor and L3-1Y/IgG2 was verified as follows. The prepared L3-1Y/IgG2 resistant EBC1 cells were seeded at the amount of 5,000 cells/well on a 96 well plate to which RPMI1640 medium (GIBCO) supplemented with 10% FBS is added, and incubated overnight at 37° C. Next day (24 hours after), the incubated cells were treated with L3-1Y/IgG2 alone or together with FGFR inhibitor, BGJ398. […]
as §1

[4] = test system: MKN45 gastric cancer cells; assay: Cell viability (CellTiter Glo) in MKN45 gastric cancer cell line; type: cell-based; conditions: for cell growth inhibition: MKN45, 72 hours, L3-1Y/IgG2 0-2 ug/ml, PD173074 fixed at 10 uM
Method: In particular, RPMI1640 medium (GIBCO) containing 10% FBS was put in a 96 well plate. MKN45 gastric cancer cells (JCRB, JCRB0254) were seeded thereon in the amount of 5,000 cells/well, and incubated overnight at 37° C. After 24 hours (the next day), the incubated cells were treated with L3-1Y/IgG2 (Reference Example 1) alone, or co-treated with L3-1Y/IgG2 and a FGFR inhibitor, PD173074. For the single treatment of L3-1Y/IgG2 alone, the concentration of L3-1Y/IgG2 was 0 ug (microgram)/ml, 0.016 ug/ml, 0.08 ug/ml, 0.4 ug/ml, or 2 ug/ml, and for the co-treatment of L3-1Y/IgG2 and PD173074, the concentration of PD173074 was fixed at 10 uM (micromole) which is a concentration of IC20 in MKN45 cell line, and the concentration of L3-1Y/IgG2 was 0 ug/ml, 0.016 ug/ml, 0.08 ug/ml, 0.4 ug/ml, or 2 ug/ml.
as §1, with “uL (microliter)” for “uL”

EBC1 lung cancer cells = assay: Cell viability (CellTiter Glo) in EBC1 lung cancer cell line; type: cell-based; conditions: 72 hours, L3-1Y/IgG2 0-2 ug/ml, PD173074 10 uM or BGJ398 5 uM
Method: (§2) In particular, RPMI1640 medium (GIBCO) containing 10% FBS were put in 96 well plate. EBC1 lung cancer cells (JCRB, JCRB0820) were seeded thereon in the amount of 5,000 cells/well, and incubated overnight at 37° C. After 24 hours (the next day), the incubated cells were treated with L3-1Y/IgG2 (Reference Example 1) alone, or co-treated with L3-1Y/IgG2 and a FGFR inhibitor, PD173074 or BGJ398. For the single treatment of L3-1Y/IgG2 alone, the concentration of L3-1Y/IgG2 was 0 ug/ml, 0.016 ug/ml, 0.08 ug/ml, 0.4 ug/ml, or 2 ug/ml, and for the co-treatment of L3-1Y/IgG2 and PD173074 or BGJ398, the concentration of PD173074 was fixed at 10 uM for PD173074 and 5 uM for BGJ398, and the concentration of L3-1Y/IgG2 was 0 ug/ml, 0.016 ug/ml, 0.08 ug/ml, 0.4 ug/ml, or 2 ug/ml.
as §1

HT29 colon cancer cells = assay: Cell viability (CellTiter Glo) in HT29 colon cancer cell line; type: cell-based; conditions: 72 hours, L3-1Y/IgG2 0-2 ug/ml, PD173074 fixed at 5 uM
Method: as §2, with “HT29 colon” for “EBC1 lung”, “(ATCC, HTB-38)” for “(JCRB, JCRB0820)”, “PD173074.” for “PD173074 or BGJ398.”, “PD173074,” for “PD173074 or BGJ398,”, “at” for “at 10 uM for PD173074 and”, “uM,” for “uM for BGJ398,”
as §1

CCN1CCN(c2ccc(Nc3cc(N(C)C(=O)Nc4c(Cl)c(OC)cc(OC)c4Cl)ncn3)cc2)CC1 [BGJ398, 3-(2,6-dichloro-3,5-dimethoxyphenyl)-1-(6-(4-(4-ethylpiperazin-1-yl)phenylamino)pyrimidin-4-yl)-1-methylurea, reference compound]
tumor inhibition rate, At d21:TV [1]: 1.3% | cancer cell growth inhibitory effect [2]: not obtained | cancer cell growth inhibitory effect [3]: not obtained

CCN(CC)CCCCNc1ncc2cc(-c3cc(OC)cc(OC)c3)c(NC(=O)NC(C)(C)C)nc2n1 [PD173074, N-[2-[[4-(Diethylamino)butyl]amino]-6-(3,5-dimethoxyphenyl)pyrido[2,3-d]pyrimidin-7-yl]-N′-(1,1-dimethylethyl)urea]
IC20 ([4]; Homo sapiens, MKN-45, read-out: concentration of IC20 in MKN45 cell line): 10 µM | cell growth inhibition [4]: no significant effect on cell growth | cancer cell growth inhibitory effect [2]: not obtained

B1: L3-1Y/IgG2: anti-c-Met antibody: huAbF46-H4-A1 heavy chain variable region, human IgG2 hinge and constant region, kappa light chain (antibody)
heavy: EVQLVESGGGLVQPGGSLRLSCAASGFTFTDYYMSWVRQAPGKGLEWLGFIRNKANGYTTEYSASVKGRFTISRDNSKNTLYLQMNSLRAEDTAVYYCARDNWFAYWGQGTLVTVSSASTKGPSVFPLAPCSRSTSESTAALGCLVKDYFPEPVTVSWNSGALTSGVHTFPAVLQSSGLYSLSSVVTVPSSNFGTQTYTCNVDHKPSNTKVDKTVERKCCVECPPCPAPPVAGPSVFLFPPKPKDTLMISRTPEVTCVVVDVSHEDPEVQFNWYVDGVEVHNAKTKPREEQFNSTFRVVSVLTVVHQDWLNGKEYKCKVSNKGLPAPIEKTISKTKGQPREPQVYTLPPSREEMTKNQVSLTCLVKGFYPSDIAVEWESNGQPENNYKTTPPMLDSDGSFFLYSKLTVDKSRWQQGNVFSCSVMHEALHNHYTQKSLSLSPGK
light: DIQMTQSPSSLSASVGDRVTITCKSSQSLLASGNQNNYLAWYQQKPGKAPKMLIIWASTRVSGVPSRFSGSGSGTDFTLTISSLQPEDFATYYCQQSYSRPYTFGQGTKVEIKRTVAAPSVFIFPPSDEQLKSGTASVVCLLNNFYPREAKVQWKVDNALQSGNSQESVTEQDSKDSTYSLSSTLTLSKADYEKHKVYACEVTHQGLSSPVTKSFNRGEC
tumor inhibition rate, At d21:TV [1]: 27.8% | cell growth inhibition (EBC1 lung cancer cells): cell growth inhibiting effect is observed | cell growth inhibition [4]: cell growth inhibition is observed | cancer cell growth inhibitory effect [2]: not obtained | cell growth inhibiting effect (HT29 colon cancer cells): not observed | cancer cell growth inhibitory effect [3]: not obtained
